The source of these data is ChEMBL document CHEMBL1201862, “PubChem BioAssay data set” (2004).

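How tested: cells in 96-well plates exposed to compound for 48 hours at five concentrations. At the GI50, growth is halved.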 Active and inactive are the calls of the source. Rule as the data show it: active = GI50 up to about 1.1 µM and inactive = higher. Bounds are passed on as bounds.

Among the test systems are UO-31; SK-MEL-5; MCF7; HOP-92; MDA-MB-435; HCT-15; UACC-62; MOLT-4; SN12C; CAKI-1; K562; SK-MEL-28; HOP-62; SF-268; MDA-N; EKVX; A549; RXF 393; NCI-H226.
Experiment in all cases: growth of human tumour cells (NCI), 48 h

As for `COc1ccc(-c2nc(SCC(=O)NNC(=S)Nc3ccccc3)[nH]c2-c2ccc(OC)cc2)cc1`, the GI50 was 45.9 µM (inactive) with UO-31; 14.9 µM (inactive) with SK-MEL-5; 20.5 µM (inactive) in the experiment on MCF7; 20.8 µM (inactive) with HOP-92; 18.2 µM (inactive) in the experiment on MDA-MB-435; 22.2 µM in the experiment with HCT-15. For the same compound, the GI50 with UACC-62 was 16.6 µM (inactive); with MOLT-4 it was 3.46 µM (inactive); with SN12C, 21.8 µM (inactive); with CAKI-1, 34.3 µM (inactive); with K562, 23.1 µM (inactive); with SK-MEL-28, 24.3 µM (inactive). Further, the GI50 was 18.6 µM (inactive) with HOP-62; 25.9 µM (inactive) in the experiment on SF-268; 20.6 µM (inactive) with MDA-N; 28.8 µM (inactive) with EKVX; 31.5 µM (inactive) in the experiment on A549; 16.9 µM (inactive) with RXF 393.

Regarding `CC(=O)OC1=NN=C2COC(c3ccccc3OC(C)=O)=NN2C1`, the GI50 in the experiment on UO-31 is 38.2 µM (inactive); in the experiment on SK-MEL-5, 9.75 µM (inactive); with MCF7, > 50 µM (inactive); in the experiment with HOP-92, > 50 µM (inactive); in the experiment with MDA-MB-435, > 50 µM (inactive); with HCT-15 it was above 50 µM. In addition, the GI50 with UACC-62 was 28.1 µM (inactive); in the experiment with SN12C, > 50 µM (inactive); in the experiment with CAKI-1 it was > 50 µM (inactive); with K562 it was > 50 µM (inactive); with SK-MEL-28, 21.9 µM (inactive); with HOP-62, > 50 µM (inactive). Moreover, the GI50 in the experiment with SF-268 is 34.8 µM (inactive); with MDA-N it was > 50 µM (inactive); in the experiment with EKVX it was > 50 µM (inactive); in the experiment with A549 it was > 50 µM (inactive); with RXF 393 it was > 50 µM (inactive).

In the case of `O=c1[nH]/c(=C/c2ccc(OCc3ccccc3)cn2)c(=O)[nH]/c1=C/c1ccccc1`, the GI50 in the experiment with SK-MEL-5 was 0.106 µM (active); in the experiment with MCF7, 0.425 µM (active); in the experiment with HOP-92 it was 14.3 µM (inactive); in the experiment with MDA-MB-435, 0.0434 µM (active); in the experiment with HCT-15 it was 0.135 µM; in the experiment on UACC-62 it was 0.191 µM (active). Also, the GI50 is 0.327 µM (active) with MOLT-4; 0.113 µM (active) with SN12C; 0.194 µM (active) with CAKI-1; 0.141 µM (active) in the experiment with K562; > 100 µM (inactive) in the experiment on SK-MEL-28; 0.239 µM (active) in the experiment with HOP-62. In addition, the GI50 is 0.206 µM (active) in the experiment with SF-268; 0.0402 µM (active) in the experiment on MDA-N; 0.138 µM (active) with EKVX; 0.594 µM (active) with A549; 0.0951 µM (active) with RXF 393.

On to `CC(=O)N(CN1C(=O)CCC1C(=O)O)c1ccc(C)cc1` (stereo not given), for which the GI50 is > 100 µM (inactive) in the experiment on UO-31; > 100 µM (inactive) in the experiment on SK-MEL-5; > 100 µM (inactive) in the experiment on MCF7; > 100 µM (inactive) in the experiment with HOP-92; > 100 µM (inactive) with MDA-MB-435; above 100 µM with HCT-15. The GI50 in the experiment on UACC-62, in the experiment with MOLT-4, with SN12C, in the experiment with CAKI-1, with K562 and in the experiment on SK-MEL-28 was > 100 µM (inactive) each time. The GI50 in the experiment on HOP-62, in the experiment on SF-268, in the experiment with MDA-N, in the experiment with EKVX, in the experiment on NCI-H226 and in the experiment on A549 was > 100 µM (inactive) each time.

Consider `CC(C)c1ccccc1SC1CC(=O)CC(Sc2ccccc2C(C)C)C12O[C@H](c1ccccc1)[C@@H](c1ccccc1)O2` (stereo not given in full), for which the GI50 in the experiment with SK-MEL-5 was 35.6 µM (inactive); in the experiment on MCF7, 34 µM (inactive); in the experiment with HOP-92 it was 95.9 µM (inactive); in the experiment on MDA-MB-435, 22.6 µM (inactive); with HCT-15, 31.7 µM; in the experiment on UACC-62, 28.4 µM (inactive). The GI50 in the experiment on MOLT-4 was 23.4 µM (inactive); in the experiment on SN12C it was 22.6 µM (inactive); with CAKI-1, 26.3 µM (inactive); with SK-MEL-28, 38.5 µM (inactive); with HOP-62, > 100 µM (inactive); with MDA-N, 20.9 µM (inactive). For the same compound, the results for the GI50 in the experiment with EKVX, in the experiment on A549 and in the experiment on RXF 393 were > 100 µM (inactive), > 100 µM (inactive) and 19.9 µM (inactive), respectively.
